# Measured values published in patent publication US20100144819A1, “Synergistic Methods for Control of Pests” (FMC A[…]. LTD., priority 2008, published 2010).
# Assays:
# [1] = tested on: black house spider (Badumna insignis); test: Black house spider mortality on treated pine plywood; assay type: in vivo; conditions: suspension concentrate diluted in water, 24 h
# Source text: (§1) The presence of a synergistic effect between the two active ingredients is established with the aid of the Colby equation (see Colby, S. R., “Calculating Synergistic and Antagonistic Responses of Herbicide Combinations”, Weeds 1967, 15, pg 20-22): E=X+Y−(XY/100).
# (§2) Using the method of Colby, the presence of asynergistic interaction between two active ingredients is established by first calculating the expected activity, ‘E’, of the mixture based on activities of the two components applied alone. If ‘E’ is lower than the observed activity, synergy is present. In the equation above, ‘X’ is the percentage control observed when bifenthrin applied alone at rate ‘x’. The ‘Y’ term is percentage control observed when fipronil applied alone at rate ‘y’. The equation calculates ‘E’, the expected activity of the mixture of ‘X’ at rate ‘x’ with ‘Y’ at rate ‘y’ if their effects are strictly additive and no interaction has occurred.
# The compositions of the present invention were tested for black house spider (Badumna insignis) activity in the following manner:
# Formulations of the test compounds were made as follows: • 1).
# The testing was conducted on pine plywood surfaces that had dimensions of 20 cm×20 cm. The above formulations were diluted in water to achieve the desired concentration rate in grams of active ingredient per liter prior to application to the pine plywood. Each treatment was applied using an airbrush sprayer and compressed air as the propellant. The equipment was calibrated prior to use and the treatments were applied to the pine plywood surfaces at a rate of 1 L/10 m^2 (4 mL of final test solution per 20 cm×20 cm pine plywood surface)'. For example, in order to obtain a application rate of […] of active ingredient per 10 m^2, 1.25 mL of the fipronil formulation 1) which contained 100 gram per liter suspension concentrate formulation of fipronil, was diluted in 1 liter of water to make a final test solution. Four mL of the final test solution was sprayed onto the pine plywood surface. The treated pine plywood was allowed to air dry at ambient temperature by storing horizontally away from direct sunlight. Three black house spiders, medium to large in size collected from the field 1 to 2 days prior to testing, were placed separately under untreated portion cups (7 cm diameter by 7 cm deep) on the treated pine plywood surfaces. The untreated portion cups provided an opportunity for the spiders to seek an untreated area. The spiders were assessed after 24 hours exposure by counting the number of alive and the number of knocked down/dead spiders. There were three replications of each treatment.
# [2] = tested on: American cockroach (Periplaneta americana); test: American cockroach mortality on treated filter paper; assay type: in vivo; conditions: 24 h
# Source text: as §1, §2
# The compositions of the present invention were tested for American cockroach (Periplaneta americana) activity in the following manner:
# Test solutions were made by dissolving technical grade bifenthrin and fipronil in acetone to provide appropriate rates of application of bifenthrin and fipronil alone, as well as combinations of bifenthrin and fipronil. The active ingredient concentrations tested were from 10 part per million (0.01 mg of active ingredient/mL or 0.01 g/L) to 1000 parts per million (1.0 mg of active ingredient/mL or 1.0 g/L), four replicates per rate. In a fume cabinet, one milliliter of a test solution was applied to a 9 cm Whatman® 2 qualitative filter paper using a calibrated pipette. The application started at the center of the filter paper with individual drops being applied in an outward circular motion so that the entire filter paper was uniformly treated. Acetone only (one mL) was applied in the same manner to provide an untreated control (UTC). The treated filter papers were allowed to dry for two hours. The dried, treated or untreated filter paper was placed into a plastic cup having a base diameter of 90 mm, in which the upper portion of the walls of the plastic cup were coated with a fluoropolymer resin (PFTE-30) insect barrier (Fluoron® available from BioQuip Products Inc.) to prevent the insects from climbing out of the container. Ten late instar, healthy and active American cockroaches (Periplaneta americana) were momentarily immobilized using carbon dioxide and then placed onto the filter paper. The top of the plastic containers were covered with gauze to contain the cockroaches. The plastic containers were maintained at a temperature of 25° C. to 30° C. at ambient relative humidity out of direct sunlight. American cockroach mortality was assessed after 24 hours by counting the number of alive and the number of knocked down/dead cockroaches.
# (§3) In order to compare the pesticidal effectiveness of the individual and combination treatments the LC 50 and LC 90 values (lethal concentration in ppm that would effectively knock down/kill 50% or 90% of the test pests) were calculated. In calculating the LC values for the various mixtures of bifenthrin and fipronil, probit analysis was conducted on the bifenthrin in concentration of the mixture. […] The values calculated from the data of Table 2 are in Table 2A below.
# [3] = tested on: German cockroach (Blatella germanica); test: German cockroach mortality on treated filter paper; assay type: in vivo, Blattella germanica; conditions: 24 h
# Source text: as §1, §2
# The compositions of the present invention were tested for German cockroach (Blatella germanica) activity in the following manner.
# Test solutions were made by dissolving technical grade bifenthrin and fipronil in acetone to provide appropriate rates of application of bifenthrin and fipronil alone, as well as combinations of bifenthrin and fipronil. The active ingredient concentrations tested were from 50 parts per million (0.05 mg of active ingredient/mL or 0.05 g/L) to 500 parts per million (0.5 mg of active ingredient/mL or 0.5 g/L), four replicates per rate. In a fume cabinet, one milliliter of a test solution was applied to a 9 cm Whatman® 2 qualitative filter paper using a calibrated pipette. The application started at the center of the filter paper with individual drops being applied in an outward circular motion so that the entire filter paper was uniformly treated. Acetone only (one mL) was applied in the same manner to provide an untreated control (UTC). The treated filter papers were allowed to dry for two hours. The dried, treated or untreated filter paper was placed into a plastic Petri dish and ten late instar, healthy and active German cockroaches (Blattella germanica) were momentarily immobilized using carbon dioxide and then placed onto the filter paper. The lid of each Petri dish was put on to contain the cockroaches. The Petri dishes were maintained at a temperature of 25° C. to 30° C. at ambient relative humidity out of direct sunlight. German cockroach mortality was assessed after 24 hours by counting the number of alive and the number of knocked down/dead cockroaches.
# as §3, with “fipronil” for “bifenthrin in”, “1” for “2”, “1A” for “2A”
# [4] = probit analysis of Table 2 data, mixtures as bifenthrin:fipronil
# [5] = probit analysis of Table 1 data, mixtures as bifenthrin:fipronil
compound,measurement,setting,value
"N#Cc1nn(-c2c(Cl)cc(C(F)(F)F)cc2Cl)c(N)c1[S+]([O-])C(F)(F)F [Fipronil, (5-amino-[2,6-dichloro-4(trifluoromethyl)phenyl]-4-[(1R,S)-(trifluoromethyl)sulfinyl]-1H-pyrazole-3-carbonitrile]",Observed % Control,[1]; 0.125 g ai/L at 1 L/10 m^2,0.0%
same,Observed % Control,[1]; 0.25 g ai/L at 1 L/10 m^2,0.0%
same,Observed % Control,[1]; 0.5 g ai/L at 1 L/10 m^2,0.0%
same,% Observed Control,[2]; 10 ppm (0.01 mg/mL),0%
same,Mortality Rep 1 dead/alive,[2]; 10 ppm (0.01 mg/mL),0/10
same,Mortality Rep 2 dead/alive,[2]; 10 ppm (0.01 mg/mL),0/10
same,Mortality Rep 3 dead/alive,[2]; 10 ppm (0.01 mg/mL),0/10
same,Mortality Rep 4 dead/alive,[2]; 10 ppm (0.01 mg/mL),0/10
same,% Observed Control,[2]; 20 ppm (0.02 mg/mL),0%
same,Mortality Rep 1 dead/alive,[2]; 20 ppm (0.02 mg/mL),0/10
same,Mortality Rep 2 dead/alive,[2]; 20 ppm (0.02 mg/mL),0/10
same,Mortality Rep 3 dead/alive,[2]; 20 ppm (0.02 mg/mL),0/10
same,Mortality Rep 4 dead/alive,[2]; 20 ppm (0.02 mg/mL),0/10
same,% Observed Control,[2]; 25 ppm (0.025 mg/mL),0%
same,Mortality Rep 1 dead/alive,[2]; 25 ppm (0.025 mg/mL),0/10
same,Mortality Rep 2 dead/alive,[2]; 25 ppm (0.025 mg/mL),0/10
same,Mortality Rep 3 dead/alive,[2]; 25 ppm (0.025 mg/mL),0/10
same,Mortality Rep 4 dead/alive,[2]; 25 ppm (0.025 mg/mL),0/10
same,% Observed Control,[2]; 50 ppm (0.05 mg/mL),0%
same,Mortality Rep 1 dead/alive,[2]; 50 ppm (0.05 mg/mL),0/10
same,Mortality Rep 2 dead/alive,[2]; 50 ppm (0.05 mg/mL),0/10
same,Mortality Rep 3 dead/alive,[2]; 50 ppm (0.05 mg/mL),0/10
same,Mortality Rep 4 dead/alive,[2]; 50 ppm (0.05 mg/mL),0/10
same,% Observed Control,[2]; 100 ppm (0.1 mg/mL),2.5%
same,Mortality Rep 1 dead/alive,[2]; 100 ppm (0.1 mg/mL),0/10
same,Mortality Rep 2 dead/alive,[2]; 100 ppm (0.1 mg/mL),0/10
same,Mortality Rep 3 dead/alive,[2]; 100 ppm (0.1 mg/mL),0/10
same,Mortality Rep 4 dead/alive,[2]; 100 ppm (0.1 mg/mL),1/9
same,% Observed Control,[2]; 125 ppm (0.125 mg/mL),2.5%
same,Mortality Rep 1 dead/alive,[2]; 125 ppm (0.125 mg/mL),0/10
same,Mortality Rep 2 dead/alive,[2]; 125 ppm (0.125 mg/mL),0/10
same,Mortality Rep 3 dead/alive,[2]; 125 ppm (0.125 mg/mL),0/10
same,Mortality Rep 4 dead/alive,[2]; 125 ppm (0.125 mg/mL),1/9
same,% Observed Control,[2]; 200 ppm (0.2 mg/mL),2.5%
same,Mortality Rep 1 dead/alive,[2]; 200 ppm (0.2 mg/mL),0/10
same,Mortality Rep 2 dead/alive,[2]; 200 ppm (0.2 mg/mL),0/10
same,Mortality Rep 3 dead/alive,[2]; 200 ppm (0.2 mg/mL),1/9
same,Mortality Rep 4 dead/alive,[2]; 200 ppm (0.2 mg/mL),0/10
same,% Observed Control,[2]; 250 ppm (0.25 mg/mL),45%
same,Mortality Rep 1 dead/alive,[2]; 250 ppm (0.25 mg/mL),0/10
same,Mortality Rep 2 dead/alive,[2]; 250 ppm (0.25 mg/mL),8/2
same,Mortality Rep 3 dead/alive,[2]; 250 ppm (0.25 mg/mL),7/3
same,Mortality Rep 4 dead/alive,[2]; 250 ppm (0.25 mg/mL),3/7
same,% Observed Control,[2]; 500 ppm (0.5 mg/mL),45%
same,Mortality Rep 1 dead/alive,[2]; 500 ppm (0.5 mg/mL),1/9
same,Mortality Rep 2 dead/alive,[2]; 500 ppm (0.5 mg/mL),8/2
same,Mortality Rep 3 dead/alive,[2]; 500 ppm (0.5 mg/mL),5/5
same,Mortality Rep 4 dead/alive,[2]; 500 ppm (0.5 mg/mL),4/6
same,LC 50,[2]; [4],1013 ppm
same,LC 90,[2]; [4],1742 ppm
same,% Observed Control,[3]; 50 ppm (0.05 mg/mL),22.5%
same,Mortality Rep 1 dead/alive,[3]; 50 ppm (0.05 mg/mL),7/3
same,Mortality Rep 2 dead/alive,[3]; 50 ppm (0.05 mg/mL),1/9
same,Mortality Rep 3 dead/alive,[3]; 50 ppm (0.05 mg/mL),0/10
same,Mortality Rep 4 dead/alive,[3]; 50 ppm (0.05 mg/mL),1/9
same,% Observed Control,[3]; 100 ppm (0.1 mg/mL),42.5%
same,Mortality Rep 1 dead/alive,[3]; 100 ppm (0.1 mg/mL),6/4
same,Mortality Rep 2 dead/alive,[3]; 100 ppm (0.1 mg/mL),3/7
same,Mortality Rep 3 dead/alive,[3]; 100 ppm (0.1 mg/mL),4/6
same,Mortality Rep 4 dead/alive,[3]; 100 ppm (0.1 mg/mL),4/6
same,% Observed Control,[3]; 250 ppm (0.25 mg/mL),100%
same,Mortality Rep 1 dead/alive,[3]; 250 ppm (0.25 mg/mL),10/0
same,Mortality Rep 2 dead/alive,[3]; 250 ppm (0.25 mg/mL),10/0
same,Mortality Rep 3 dead/alive,[3]; 250 ppm (0.25 mg/mL),10/0
same,Mortality Rep 4 dead/alive,[3]; 250 ppm (0.25 mg/mL),10/0
same,% Observed Control,[3]; 500 ppm (0.5 mg/mL),100%
same,Mortality Rep 1 dead/alive,[3]; 500 ppm (0.5 mg/mL),10/0
same,Mortality Rep 2 dead/alive,[3]; 500 ppm (0.5 mg/mL),10/0
same,Mortality Rep 3 dead/alive,[3]; 500 ppm (0.5 mg/mL),10/0
same,Mortality Rep 4 dead/alive,[3]; 500 ppm (0.5 mg/mL),10/0
same,LC 50,[3]; [5],102 ppm
same,LC 90,[3]; [5],179 ppm
